Test results reported in paper PMC10051310, “Antiproliferative Activity, Multikinase Inhibition, Apoptosis- Inducing Effects and Molecular Docking of Novel Isatin–Purine Hybrids” (Medicina, 2023).
Values belong to the compound of their own block, whether it stands above or below them.

Columns and labels:
[1] = system: MDA-MB-231; experiment: MTT cytotoxicity assay, MDA-MB-231; conditions: Homo sapiens, MDA-MB-231, 24 h, read-out: In Vitro Cytotoxicity IC50 MDA-MB-231
Experimental: (§4) Sunitinib, a well-known multi-kinase inhibitor, was used as a reference compound.
(§5) After incubation for 48 h, the cells were treated with different concentrations of the synthesized hybrid compounds for 24 h. After the addition of 20 μL MTT (5 mg/mL), the plates were incubated for 4 h and then 100 μL Dimethyl sulfoxide (DMSO) was added to each well to dissolve the insoluble purple formazan formed. […] The relative cell viability percentage was calculated as (A570 of treated samples/A570 of untreated sample) × 100.

[2] = system: HepG2; experiment: MTT cytotoxicity assay, HepG2; conditions: Homo sapiens, HepG2, 24 h, read-out: In Vitro Cytotoxicity IC50 HepG2
Experimental: as §4, §5

[3] = system: HeLa; experiment: MTT cytotoxicity assay, HeLa; conditions: Homo sapiens, 24 h, read-out: In Vitro Cytotoxicity IC50 HeLa
Experimental: as §4, §5

[4] = system: MCF-7; experiment: MTT cytotoxicity assay, MCF-7; conditions: Homo sapiens, MCF7, 24 h, read-out: In Vitro Cytotoxicity IC50 MCF-7
Experimental: as §4, §5

[5] = system: HepG2, MCF-7, MDA-MB-231 and HeLa cell lines; experiment: MTT cytotoxicity assay, summary over all four cell lines; conditions: Homo sapiens, read-out: IC50 against all tested cell lines
Experimental: as §4, §5

[6] = system: HepG2 cells; experiment: Flow cytometry cell cycle analysis (propidium iodide); assay type: cell-based, human; conditions: HepG2, 9.61 μM, 24 h
Experimental: In addition, the cell cycle progression assay as described by Wang et al. was used to investigate the effect of compound 15 in HepG2 cells. The biological effect of compound 15 was measured by treating HepG2 cells with 9.61 μM of the compound for 24 h. The compound’s effect on cell cycle distribution was analyzed by comparing with untreated control cells (Table 3, Figure 6).
Flow cytometry analysis was carried out using an ab139418 Propidium Iodide flow cytometry kit/BD to detect the effect of the synthesized compound 15 on cell cycle distribution. First, HepG2 cell were seeded in 6-well plates at a density of 2 × 10^5/well and incubated for 24 h. HepG2 cells were then treated with 9.61 µM of compound 15 for 24 h. The treated cells were then fixed in 70% ethanol for 12 h at 4 °C, rinsed with cold PBS, incubated with 100 μL RNase A for 0.5 h at 37 °C, and stained with Propidium Iodide (400 μL) in the dark at RT for an extra 0.5 h. The stained cells were determined utilizing Epics XLMCL™ flow cytometer equipment (Beckman Coulter, Apeldoorn, Netherlands), and the results were collected and analyzed using Flowing software (version 2.5.1, Turku Centre for Biotechnology, Turku, Finland).

[7] = biological target: T1, Her2 (Homo sapiens, UniProt P04626); experiment: In vitro Her2 enzyme assay (ELISA kit); assay type: biochemical
T1 construct: purchased
Experimental: (§1) A human ELISA kit (Enzyme-Linked Immunosorbent Assay) for each of the above-mentioned protein kinase enzymes was used in this assay. […] The mixture was then incubated at room temperature for 2.5 h, after which the wells were washed and 100 μL of the prepared biotin antibody was added and incubated for 1 h at room temperature. After another washing step, 100 μL of streptavidin solution was added and incubated for 45 min at room temperature. The wells were then washed for a third time and 100 μL of TMB Substrate reagent was added and incubated for 30 min at room temperature. Finally, 50 μL of the stop solution was added, and the absorbance was read immediately at 450 nm. A standard curve was plotted showing concentration on the X-axis and absorbance on the Y-axis.

[8] = biological target: T2, CDK2 (Homo sapiens, UniProt P24941); experiment: In vitro CDK2 enzyme assay (ELISA kit); assay type: biochemical
T2 construct: purchased
Experimental: as §1

[9] = system: HepG2 cells; experiment: Annexin V/propidium iodide apoptosis flow cytometry; assay type: cell-based, human; conditions: HepG2, 9.61 μM, 24 h
Experimental: On the other hand, an Annexin V/propidium iodide (PI) double staining assay was conducted to identify the mode of cell death promoted by compound 15 (9.61 μM) following 24 h incubation with HepG2 cells.
Flow cytometry cell apoptosis analysis was conducted to examine the apoptotic effect of the synthesized compounds using the Annexin V-FITC cell apoptosis detection kit (Biovision, K101-100). First, HepG2 cells in a density of 2 × 10^5 were seeded in 6-well plates and incubated for 24 h. The cells were then treated with 9.61 µM compound 15 for 24 h. The treated cells were then detached with trypsin (5 min, 37 °C), collected by centrifugation (5 min, 300× g), washed twice with PBS, and resuspended in 0.1 mL of a 1X binding buffer. After that, the cells were double-stained with 5 μL Annexin V-FITC and 5 μL PI in the dark at room temperature for 15 min. The stained cells were evaluated using an Epics XL-MCL™ Flow Cytometer (Beckman Coulter, Apeldoorn, Netherlands) with an excitation wavelength of 488 nm and an emission wavelength of 530 nm, and the data were interpreted using the Flowing software (version 2.5.1, Turku Centre for Biotechnology, Turku, Finland).

[10] = system: BAX; experiment: BAX protein level ELISA in HepG2 cells; assay type: cell-based, human; conditions: HepG2, 9.61 μM, 24 h
Experimental: (§2) In these assays, compound 15 was used at its cytotoxic concentration (9.61 μM) and incubated with HepG2 cells for 24 h.
(§3) HepG2 cells were seeded in 96-well plates in triplicate and incubated for 24 h. The incubated cells were then treated with compound 15 at different concentrations. Cells treated with 0.1% DMSO (V/V) served as control. After 24 h incubation, caspase 3 and 9, BAX and Bcl-2 levels were determined using ELISA assay kits KHO1091 (Invitrogen^TM, Grand Island, NY, USA), EIA-4860 (DRU International INC., Mountainside, NJ, USA), EIA-4487 (DRU International INC., Mountainside, NJ, USA) and 99-0042 (Invitrogen^TM, Grand Island, NY, USA), respectively, according to the manufacturers’ procedures.

[11] = system: Caspase 3; experiment: Caspase 3 protein level ELISA in HepG2 cells; assay type: cell-based, human; conditions: HepG2, 9.61 μM, 24 h
Experimental: as §2, §3

[12] = system: Caspase 9; experiment: Caspase 9 protein level ELISA in HepG2 cells; assay type: cell-based, human; conditions: HepG2, 9.61 μM, 24 h
Experimental: as §2, §3

[13] = biological target: T3, EGFR (Homo sapiens, UniProt P00533); experiment: In vitro EGFR enzyme assay (ELISA kit); assay type: biochemical
T3 construct: purchased
Experimental: as §1

[14] = biological target: T4, VEGFR2 (Homo sapiens, UniProt P35968); experiment: In vitro VEGFR-2 enzyme assay (ELISA kit); assay type: biochemical
T4 construct: purchased
Experimental: as §1

[15] = system: Bcl-2; experiment: Bcl-2 protein level ELISA in HepG2 cells; assay type: cell-based, human; conditions: HepG2, 9.61 μM, 24 h
Experimental: as §2, §3

T3 sequence (P00533 25-1210): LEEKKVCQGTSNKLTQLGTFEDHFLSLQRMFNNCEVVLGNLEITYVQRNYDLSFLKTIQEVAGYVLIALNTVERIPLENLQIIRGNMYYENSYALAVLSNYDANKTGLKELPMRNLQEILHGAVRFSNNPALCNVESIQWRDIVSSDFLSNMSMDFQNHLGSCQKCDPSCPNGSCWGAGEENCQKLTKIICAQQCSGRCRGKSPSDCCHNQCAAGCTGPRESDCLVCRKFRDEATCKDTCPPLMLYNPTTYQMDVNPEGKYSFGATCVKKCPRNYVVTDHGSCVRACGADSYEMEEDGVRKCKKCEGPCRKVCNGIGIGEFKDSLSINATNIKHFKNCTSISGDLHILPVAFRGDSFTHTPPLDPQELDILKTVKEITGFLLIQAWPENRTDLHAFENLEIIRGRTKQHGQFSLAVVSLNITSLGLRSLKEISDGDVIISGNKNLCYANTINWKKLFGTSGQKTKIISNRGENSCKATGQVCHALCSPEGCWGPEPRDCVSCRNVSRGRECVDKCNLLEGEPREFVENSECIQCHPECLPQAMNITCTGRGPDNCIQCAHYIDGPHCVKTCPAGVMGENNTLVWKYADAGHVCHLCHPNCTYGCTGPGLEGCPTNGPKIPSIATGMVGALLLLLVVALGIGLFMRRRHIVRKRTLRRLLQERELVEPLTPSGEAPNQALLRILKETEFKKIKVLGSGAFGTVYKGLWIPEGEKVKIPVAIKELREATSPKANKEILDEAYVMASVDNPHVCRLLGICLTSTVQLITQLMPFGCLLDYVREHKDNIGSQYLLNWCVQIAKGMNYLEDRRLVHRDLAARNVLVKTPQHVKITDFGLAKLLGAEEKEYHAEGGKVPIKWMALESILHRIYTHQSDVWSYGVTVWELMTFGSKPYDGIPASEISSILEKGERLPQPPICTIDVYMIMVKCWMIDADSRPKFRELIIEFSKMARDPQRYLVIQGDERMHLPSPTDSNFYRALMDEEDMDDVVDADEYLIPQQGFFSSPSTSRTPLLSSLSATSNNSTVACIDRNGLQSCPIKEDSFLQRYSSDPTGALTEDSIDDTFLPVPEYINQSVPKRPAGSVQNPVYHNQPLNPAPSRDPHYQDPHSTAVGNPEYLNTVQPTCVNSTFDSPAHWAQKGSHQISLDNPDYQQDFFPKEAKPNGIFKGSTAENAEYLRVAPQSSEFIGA
T1 sequence (P04626 23-1255): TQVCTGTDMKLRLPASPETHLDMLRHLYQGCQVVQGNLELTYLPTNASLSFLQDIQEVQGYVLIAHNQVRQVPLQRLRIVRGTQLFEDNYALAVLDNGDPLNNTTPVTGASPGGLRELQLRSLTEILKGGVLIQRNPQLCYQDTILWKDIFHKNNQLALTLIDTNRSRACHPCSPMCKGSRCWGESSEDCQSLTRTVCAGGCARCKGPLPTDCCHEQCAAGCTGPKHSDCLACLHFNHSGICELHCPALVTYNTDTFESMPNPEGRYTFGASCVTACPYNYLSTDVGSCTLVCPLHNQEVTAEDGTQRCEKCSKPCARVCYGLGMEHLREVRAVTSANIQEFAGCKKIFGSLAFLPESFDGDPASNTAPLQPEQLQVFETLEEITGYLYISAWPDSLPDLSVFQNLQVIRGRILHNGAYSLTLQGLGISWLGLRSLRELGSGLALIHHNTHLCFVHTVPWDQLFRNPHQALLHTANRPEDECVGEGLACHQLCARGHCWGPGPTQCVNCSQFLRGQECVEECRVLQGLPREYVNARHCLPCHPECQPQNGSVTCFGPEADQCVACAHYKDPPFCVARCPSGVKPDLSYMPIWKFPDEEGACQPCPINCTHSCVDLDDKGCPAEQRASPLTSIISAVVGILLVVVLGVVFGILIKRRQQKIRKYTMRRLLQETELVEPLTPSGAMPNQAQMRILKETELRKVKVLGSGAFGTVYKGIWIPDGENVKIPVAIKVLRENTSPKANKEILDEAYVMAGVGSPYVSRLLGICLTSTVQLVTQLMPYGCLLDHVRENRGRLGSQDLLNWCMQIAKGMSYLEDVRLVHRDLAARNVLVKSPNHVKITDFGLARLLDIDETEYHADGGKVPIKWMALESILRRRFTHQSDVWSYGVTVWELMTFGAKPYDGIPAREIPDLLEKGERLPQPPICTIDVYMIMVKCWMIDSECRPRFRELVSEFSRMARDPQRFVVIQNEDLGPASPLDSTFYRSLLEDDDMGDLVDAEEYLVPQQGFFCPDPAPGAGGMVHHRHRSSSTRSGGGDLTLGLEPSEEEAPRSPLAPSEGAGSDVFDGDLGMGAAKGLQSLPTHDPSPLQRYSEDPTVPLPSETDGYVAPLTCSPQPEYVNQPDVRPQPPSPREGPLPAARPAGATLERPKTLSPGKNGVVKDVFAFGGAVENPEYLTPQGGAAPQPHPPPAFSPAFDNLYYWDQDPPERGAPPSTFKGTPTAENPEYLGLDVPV
T4 sequence (P35968 20-1356): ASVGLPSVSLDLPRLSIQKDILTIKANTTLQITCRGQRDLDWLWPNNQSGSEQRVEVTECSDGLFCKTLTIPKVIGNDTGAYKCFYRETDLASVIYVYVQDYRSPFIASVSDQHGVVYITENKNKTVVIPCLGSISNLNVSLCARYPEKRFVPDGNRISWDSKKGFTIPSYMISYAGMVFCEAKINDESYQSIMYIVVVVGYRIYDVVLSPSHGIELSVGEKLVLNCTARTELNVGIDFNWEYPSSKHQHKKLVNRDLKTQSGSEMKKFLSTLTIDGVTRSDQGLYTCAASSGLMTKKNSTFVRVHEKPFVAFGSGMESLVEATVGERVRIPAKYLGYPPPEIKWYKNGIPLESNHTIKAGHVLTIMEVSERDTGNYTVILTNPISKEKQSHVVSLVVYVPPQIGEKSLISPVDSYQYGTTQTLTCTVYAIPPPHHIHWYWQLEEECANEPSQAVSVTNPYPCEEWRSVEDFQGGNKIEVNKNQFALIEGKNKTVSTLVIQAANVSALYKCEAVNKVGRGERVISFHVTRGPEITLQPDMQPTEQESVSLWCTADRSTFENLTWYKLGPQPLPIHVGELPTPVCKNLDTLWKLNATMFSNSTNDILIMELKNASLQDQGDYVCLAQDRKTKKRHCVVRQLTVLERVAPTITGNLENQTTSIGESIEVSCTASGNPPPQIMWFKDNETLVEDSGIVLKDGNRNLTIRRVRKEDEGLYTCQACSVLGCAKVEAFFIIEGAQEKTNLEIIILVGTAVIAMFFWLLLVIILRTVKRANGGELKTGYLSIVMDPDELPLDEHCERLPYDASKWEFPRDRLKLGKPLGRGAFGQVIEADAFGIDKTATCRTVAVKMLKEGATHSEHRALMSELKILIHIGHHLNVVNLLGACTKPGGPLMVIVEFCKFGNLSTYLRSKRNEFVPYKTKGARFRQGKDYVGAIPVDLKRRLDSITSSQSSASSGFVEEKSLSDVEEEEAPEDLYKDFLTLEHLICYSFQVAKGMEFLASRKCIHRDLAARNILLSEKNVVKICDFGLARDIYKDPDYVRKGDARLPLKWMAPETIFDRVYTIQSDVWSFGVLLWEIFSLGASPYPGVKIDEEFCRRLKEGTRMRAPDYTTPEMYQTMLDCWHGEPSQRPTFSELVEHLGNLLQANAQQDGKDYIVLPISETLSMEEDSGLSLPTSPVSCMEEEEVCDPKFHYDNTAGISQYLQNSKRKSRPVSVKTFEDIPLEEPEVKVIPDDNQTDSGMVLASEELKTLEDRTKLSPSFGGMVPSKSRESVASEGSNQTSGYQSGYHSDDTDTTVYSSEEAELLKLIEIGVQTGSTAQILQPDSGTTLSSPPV

SMILES: O=C1Nc2ccccc2C1=NNC(=O)c1ccc(Nc2ncnc3[nH]cnc23)cc1 [Compound 4, 4-((9H-purin-6-yl)amino)-N’-(2-oxoindolin-3-ylidene)benzohydrazide]
IC50 [1]: 59.7 ± 2.9 µM | IC50 [2]: 54.6 ± 3.1 µM | IC50 [3]: 62.4 ± 3.4 µM | IC50 [4]: 47.3 ± 3 µM | melting point: > 300 °C

SMILES: O=C1Nc2ccc(Cl)cc2C1=NNC(=O)c1ccc(Nc2ncnc3[nH]cnc23)cc1 [Compound 5, 4-((9H-purin-6-yl)amino)-N’-(5-chloro-2-oxoindolin-3-ylidene)benzohydrazide]
IC50 [1]: 82.1 ± 3.8 µM | IC50 [2]: 88.1 ± 4 µM | IC50 [3]: > 100 µM | IC50 [4]: > 100 µM | melting point: > 300 °C

SMILES: O=C1Nc2ccc(F)cc2C1=NNC(=O)c1ccc(Nc2ncnc3[nH]cnc23)cc1 [Compound 6, 4-((9H-purin-6-yl)amino)-N’-(5-fluoro-2-oxoindolin-3-ylidene)benzohydrazide]
IC50 [5]: 18.1 to 53.5 µM | IC50 [1]: 19.1 ± 1.4 µM | IC50 [2]: 42.4 ± 2.7 µM | IC50 [3]: 30.7 ± 2.3 µM | IC50 [4]: 22.3 ± 1.8 µM | melting point: > 300 °C

SMILES: Cc1ccc2c(c1)C(=NNC(=O)c1ccc(Nc3ncnc4[nH]cnc34)cc1)C(=O)N2 [Compound 7, 4-((9H-purin-6-yl)amino)-N’-(5-methyl-2-oxoindolin-3-ylidene)benzohydrazide]
IC50 [1]: 91.6 ± 4.5 µM | IC50 [2]: 60.4 ± 3.2 µM | IC50 [3]: > 100 µM | IC50 [4]: 76.4 ± 3.7 µM | melting point: > 300 °C

SMILES: COc1ccc2c(c1)C(=NNC(=O)c1ccc(Nc3ncnc4[nH]cnc34)cc1)C(=O)N2 [Compound 8, 4-((9H-purin-6-yl)amino)-N’-(5-methoxy-2-oxoindolin-3-ylidene)benzohydrazide]
IC50 [5]: 18.1 to 53.5 µM | IC50 [1]: 29.8 ± 2 µM | IC50 [2]: 48.1 ± 2.9 µM | IC50 [3]: 53.5 ± 3.2 µM | IC50 [4]: 40.6 ± 2.7 µM | melting point: > 300 °C

SMILES: O=C1Nc2ccc([N+](=O)[O-])cc2C1=NNC(=O)c1ccc(Nc2ncnc3[nH]cnc23)cc1 [Compound 9, 4-((9H-purin-6-yl)amino)-N’-(5-nitro-2-oxoindolin-3-ylidene)benzohydrazide]
IC50 [1]: 72.2 ± 3.4 µM | IC50 [2]: 75.6 ± 3.5 µM | IC50 [3]: 84.6 ± 4.1 µM | IC50 [4]: 65 ± 3.4 µM | melting point: > 300 °C

SMILES: CCN(CC)CCNC(=O)c1c(C)[nH]c(/C=C2\C(=O)Nc3ccc(F)cc32)c1C [Sunitinib, reference compound]
IC50 [1]: 8.41 ± 0.7 µM | IC50 [2]: 6.82 ± 0.5 µM | IC50 [3]: 7.48 ± 0.6 µM | IC50 [4]: 5.19 ± 0.4 µM

Further lines, with some results ahead:

melting point: > 300 °C
SMILES: O=C1Nc2ccccc2/C1=N\Nc1ncnc2[nH]cnc12 [Compound 11, (E)-3-(2-(9H-purin-6-yl)hydrazineylidene)indolin-2-one]
IC50 [1]: 24.8 ± 1.9 µM | IC50 [2]: 12.9 ± 1 µM | IC50 [3]: 17.6 ± 1.4 µM | IC50 [4]: 15.6 ± 1.3 µM

melting point: 296 to 298 °C
SMILES: O=C1Nc2ccc(Cl)cc2/C1=N\Nc1ncnc2[nH]cnc12 [Compound 12, (E)-3-(2-(9H-purin-6-yl)hydrazineylidene)-5-chloroindolin-2-one]
IC50 [5]: 18.1 to 53.5 µM | IC50 [1]: 41.3 ± 2.5 µM | IC50 [2]: 26.4 ± 1.8 µM | IC50 [3]: 46.7 ± 2.8 µM | IC50 [4]: 33 ± 2.3 µM

melting point: > 300 °C
SMILES: O=C1Nc2ccc(F)cc2/C1=N\Nc1ncnc2[nH]cnc12 [Compound 13, (E)-3-(2-(9H-purin-6-yl)hydrazineylidene)-5-fluoroindolin-2-one]
IC50 [5]: 18.1 to 53.5 µM | IC50 [1]: 45.2 ± 2.7 µM | IC50 [2]: 31.7 ± 2.1 µM | IC50 [3]: 51.2 ± 3 µM | IC50 [4]: 38.8 ± 2.5 µM

melting point: 294 to 296 °C
SMILES: Cc1ccc2c(c1)/C(=N\Nc1ncnc3[nH]cnc13)C(=O)N2 [Compound 14, (E)-3-(2-(9H-purin-6-yl)hydrazineylidene)-5-methylindolin-2-one]
IC50 [5]: 18.1 to 53.5 µM | IC50 [1]: 32.5 ± 2.2 µM | IC50 [2]: 18.1 ± 1.3 µM | IC50 [3]: 43.5 ± 2.7 µM | IC50 [4]: 27.5 ± 2.1 µM

IC50 [7]: 0.15 µM | IC50 [8]: 0.534 µM | IC50 [13]: 0.143 µM | IC50 [14]: 0.192 µM
SMILES: COc1ccc2c(c1)/C(=N\Nc1ncnc3[nH]cnc13)C(=O)N2 [Compound 15, (E)-3-(2-(9H-purin-6-yl)hydrazineylidene)-5-methoxyindolin-2-one]
accumulation at pre-G1 compared to control cells [6]: 10 fold | Cell Cycle Distribution (%) % Pre-G1 ([6]; control 2.02): 21.47% | Cell Cycle Distribution (%) % G2/M ([6]; control 17.45): 6.38% | Cell Cycle Distribution (%) % S ([6]; control 38.16): 42.44% | Cell Cycle Distribution (%) % G0–G1 ([6]; control 44.39): 51.18% | Apoptosis: Late ([9]; control 0.19%): 12.58% | Apoptosis: Early ([9]; control 0.38%): 1.86% | Apoptosis: Necrosis ([9]; control 1.45%): 7.03% | viability at 9.61 µM ([9]; Homo sapiens, control 97.98%, read-out: Apoptosis: Viable): 78.5% | IC50 [5]: 8.93 to 14.9 µM | BAX Expression ([10]; control 83.88 ± 23): 279.1 ± 8.15 pg/mL | BAX Fold ([10]; relative to control = 1): 3.38 fold | Caspase 3 Expression ([11]; control 93.23 ± 15.5): 368.4 ± 20.7 pg/mL | Caspase 3 Fold ([11]; relative to control = 1): 3.95 fold | IC50 [1]: 14.9 ± 1.2 µM | IC50 [2]: 9.61 ± 0.8 µM | IC50 [3]: 8.93 ± 0.8 µM | Caspase 9 Expression ([12]; control 4.52 ± 1.27): 14.07 ± 0.58 pg/mL | Caspase 9 Fold ([12]; relative to control = 1): 3.11 fold | IC50 [4]: 10.8 ± 0.9 µM | Bcl-2 Expression ([15]; control 10.67 ± 0.83): 4.593 ± 0.22 pg/mL | Bcl-2 protein level decrease ([15]; fold decrease versus control): 2.30 fold | Bcl-2 Fold ([15]; relative to control = 1): 0.43 fold

melting point: > 300 °C
SMILES: O=C1Nc2ccc([N+](=O)[O-])cc2/C1=N\Nc1ncnc2[nH]cnc12 [Compound 16, (E)-3-(2-(9H-purin-6-yl)hydrazineylidene)-5-nitroindolin-2-one]
IC50 [1]: 67.4 ± 3.2 µM | IC50 [2]: 39.7 ± 2.5 µM | IC50 [3]: 69.5 ± 3.6 µM | IC50 [4]: 58.3 ± 3.2 µM
